What was measured:
E. faecium CL 4931 = assay: MIC determination in BHI media, OD600; type: cell-based; conditions: BHI + 0.1% casamino acids, 18 hours at 37° C., ≧90% OD600 inhibition
In short: (§1)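 MIC was judged per concentration from endpoint plate readings after an 18-hour incubation at 37° C, using log-phase inoculum at about 5×10^5 CFU/ml and test agents serially diluted in DMSO.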

E. faecium ATCC 49624 = assay: MIC determination in BHI media, OD600; type: cell-based; conditions: BHI + 0.1% casamino acids, 18 hours at 37° C., ≧90% OD600 inhibition
In short: as §1

S. Aureus ATCC 33591 = assay: MIC determination in BHI media, OD600; type: cell-based; conditions: BHI + 0.1% casamino acids, 18 hours at 37° C., ≧90% OD600 inhibition
In short: as §1

S aureus ATCC 29213 = assay: MIC determination in BHI media, OD600; type: cell-based; conditions: BHI + 0.1% casamino acids, 18 hours at 37° C., ≧90% OD600 inhibition
In short: as §1

E. Faecalis CL 4877 = assay: MIC determination in BHI media, OD600; type: cell-based; conditions: BHI + 0.1% casamino acids, 18 hours at 37° C., ≧90% OD600 inhibition
In short: as §1

E. faceium (ATCC 49624) = assay: Zone of inhibition screen, 96 well agar array format;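 further: score 3 means fourfold and score 4 sixteenfold the reference zone size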; type: cell-based, E. faecium; conditions: zone of inhibition relative to 1 mg/ml stock solution of p-chlorobiphenylvancomycin
In short: (§2)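 Antibacterial testing on a 96-well agar array; each compound screened separately.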

S. aureus (ATCC 29213) = assay: as above; type: cell-based; parameters: scale not given here; conditions: zone of inhibition relative to 1 mg/ml stock solution of p-chlorobiphenylvancomycin
In short: as §2

[1] = tested on: S. epidermidis (ATCC 12228); assay: as above; type: cell-based; parameters: scale not given here; conditions: zone of inhibition relative to 1 mg/ml stock solution of p-chlorobiphenylvancomycin
In short: as §2

E. faecalis (CL 4877) = assay: as above; type: cell-based; parameters: scale not given here; conditions: zone of inhibition relative to 1 mg/ml stock solution of p-chlorobiphenylvancomycin
In short: as §2

Row | Structure (SMILES) | MIC E. faecium CL 4931 (E. faecium CL 4931) | MIC E. faecium ATCC 49624 (E. faecium ATCC 49624) | MIC S. aureus ATCC 33591 (S. Aureus ATCC 33591) | MIC S. aureus ATCC 29213 (S aureus ATCC 29213) | MIC E. faecalis CL 4877 (E. Faecalis CL 4877) | zone score, E. faecium ATCC 49624 (E. faceium (ATCC 49624)) | zone score, S. aureus ATCC 29213 (S. aureus (ATCC 29213)) | zone score, S. epidermidis ATCC 12228 [1] | zone score, E. faecalis CL 4877 (E. faecalis (CL 4877))
1 | CN[C@H](CC(C)C)C(=O)N[C@H]1C(=O)N[C@@H](CC(N)=O)C(=O)N[C@H]2C(=O)N[C@H]3C(=O)N[C@H](C(=O)N[C@H](C(=O)O)c4cc(O)cc(O)c4-c4cc3ccc4O)[C@H](O)c3ccc(c(Cl)c3)Oc3cc2cc(c3O[C@@H]2O[C@H](CO)[C@@H](O)[C@H](O)[C@H]2O[C@H]2C[C@](C)(N)[C@H](O)[C@H](C)O2)Oc2ccc(cc2Cl)[C@H]1O [Compound 0, Vancomycin, reference compound] | > 250 µg/mL | 1.25 µg/mL | 2.5 µg/mL | 1.25 µg/mL | > 250 µg/mL |  |  |  | 
2 | C[C@H](OC(C)(C)C)[C@@H](N)C(=O)N[C@H]1C(=O)N[C@@H](CC(N)=O)C(=O)N[C@H]2C(=O)N[C@H]3C(=O)N[C@H](C(=O)N[C@@H](C(=O)O)c4cc(O)cc(O)c4-c4cc3ccc4O)[C@H](O)c3ccc(c(Cl)c3)Oc3cc2cc(c3O[C@@H]2O[C@H](CO)[C@@H](O)[C@H](O)[C@H]2O[C@@H]2C[C@@](C)(NCc3ccc(-c4ccc(Cl)cc4)cc3)[C@@H](O)[C@@H](C)O2)Oc2ccc(cc2Cl)[C@H]1O [Compound 18] | 25 µg/mL | 0.25 µg/mL | 0.78 µg/mL | 0.78 µg/mL | 25 µg/mL | 2 | 2 |  | 
3 | C[C@H]1O[C@H](O[C@H]2[C@H](Oc3c4cc5cc3Oc3ccc(cc3Cl)[C@@H](O)[C@@H](NC(=O)[C@@H]3CC(OC(C)(C)C)CN3)C(=O)N[C@@H](CC(N)=O)C(=O)N[C@H]5C(=O)N[C@H]3C(=O)N[C@H](C(=O)N[C@@H](C(=O)O)c5cc(O)cc(O)c5-c5cc3ccc5O)[C@H](O)c3ccc(c(Cl)c3)O4)O[C@H](CO)[C@@H](O)[C@@H]2O)C[C@@](C)(NCc2ccc(-c3ccc(Cl)cc3)cc2)[C@H]1O (some centres unmarked) [Compound 30] | 25 µg/mL | 0.78 µg/mL |  |  | 25 µg/mL | 2 |  |  | 
4 | CC1OC(OC2C(Oc3c4cc5cc3Oc3ccc(cc3Cl)C(O)C3NC(=O)C(NC(=O)C5NC(=O)C(CC(N)=O)NC(=O)C(NC(=O)CNC(=O)CNC(=O)c5ccc([N+](=O)[O-])cc5)C(O)c5ccc(c(Cl)c5)O4)c4ccc(O)c(c4)-c4c(O)cc(O)cc4C(C(=O)O)NC3=O)OC(CO)C(O)C2O)CC(C)(NCc2ccc(-c3ccc(Cl)cc3)cc2)C1O (centres unmarked) [Compound 108] | > 25 µg/mL |  | 0.78 µg/mL | 0.78 µg/mL | > 25 µg/mL |  | 2 |  | 
5 | CC1OC(OC2C(Oc3c4cc5cc3Oc3ccc(cc3Cl)C(O)C3NC(=O)C(NC(=O)C5NC(=O)C(CC(N)=O)NC(=O)C(NC(=O)C(N)COCc5ccccc5)C(O)c5ccc(c(Cl)c5)O4)c4ccc(O)c(c4)-c4c(O)cc(O)cc4C(C(=O)O)NC3=O)OC(CO)C(O)C2O)CC(C)(NCc2ccc(-c3ccc(Cl)cc3)cc2)C1O (centres unmarked) [Compound 338] |  | 0.25 µg/mL | 0.39 µg/mL |  | 25 µg/mL |  |  |  | 
6 | CNC(C(=O)NC1C(=O)NC(CC(N)=O)C(=O)NC2C(=O)NC3C(=O)NC(C(=O)NC(C(=O)O)c4cc(O)cc(O)c4-c4cc3ccc4O)C(O)c3ccc(c(Cl)c3)Oc3cc2cc(c3OC2OC(CO)C(O)C(O)C2OC2CC(C)(NCc3ccc(-c4ccc(Cl)cc4)cc3)C(O)C(C)O2)Oc2ccc(cc2Cl)C1O)C(C)C (centres unmarked) [Compound 340] |  | 0.39 µg/mL | 0.39 µg/mL | 0.39 µg/mL | 25 µg/mL |  |  |  | 
7 | CN[C@H](CC(C)C)C(=O)N[C@H]1C(=O)N[C@@H](CC(N)=O)C(=O)N[C@H]2C(=O)N[C@H]3C(=O)N[C@H](C(=O)N[C@@H](C(=O)O)c4cc(O)cc(O)c4-c4cc3ccc4O)[C@H](O)c3ccc(c(Cl)c3)Oc3cc2cc(c3O[C@@H]2O[C@H](CI)[C@@H](O)[C@H](O)[C@H]2O[C@@H]2C[C@@](C)(NCc3ccc(-c4ccc(Cl)cc4)cc3)[C@@H](O)[C@@H](C)O2)Oc2ccc(cc2Cl)[C@H]1O [Compound 519] | > 25 µg/mL | 0.78 µg/mL |  |  | > 25 µg/mL |  |  |  | 
8 | CC1OC(OC2C(Oc3c4cc5cc3Oc3ccc(cc3Cl)C(O)C3NC(=O)C(NC(=O)C5NC(=O)C(CC(N)=O)NC(=O)C(NC(=O)C(N)Cc5ccc(O)c([N+](=O)[O-])c5)C(O)c5ccc(c(Cl)c5)O4)c4ccc(O)c(c4)-c4c(O)cc(O)cc4C(C(=O)O)NC3=O)OC(CO)C(O)C2O)CC(C)(NCc2ccc(-c3ccc(Cl)cc3)cc2)C1O (centres unmarked) [Compound 557] | 25 µg/mL | 0.39 µg/mL |  |  | 25 µg/mL |  |  |  | 

Second part, led by results:

Row | MIC E. faecium CL 4931 (E. faecium CL 4931) | MIC E. faecium ATCC 49624 (E. faecium ATCC 49624) | MIC S. aureus ATCC 33591 (S. Aureus ATCC 33591) | MIC S. aureus ATCC 29213 (S aureus ATCC 29213) | MIC E. faecalis CL 4877 (E. Faecalis CL 4877) | Structure (SMILES) | zone score, E. faecium ATCC 49624 (E. faceium (ATCC 49624)) | zone score, S. aureus ATCC 29213 (S. aureus (ATCC 29213)) | zone score, S. epidermidis ATCC 12228 [1] | zone score, E. faecalis CL 4877 (E. faecalis (CL 4877))
9 | 25 µg/mL | 0.78 µg/mL | 0.78 µg/mL | 0.78 µg/mL | 25 µg/mL | C[C@H](N)C(=O)N[C@H]1C(=O)N[C@@H](CC(N)=O)C(=O)N[C@H]2C(=O)N[C@H]3C(=O)N[C@H](C(=O)N[C@@H](C(=O)O)c4cc(O)cc(O)c4-c4cc3ccc4O)[C@H](O)c3ccc(c(Cl)c3)Oc3cc2cc(c3O[C@@H]2O[C@H](CO)[C@@H](O)[C@H](O)[C@H]2O[C@@H]2C[C@@](C)(NCc3ccc(-c4ccc(Cl)cc4)cc3)[C@@H](O)[C@@H](C)O2)Oc2ccc(cc2Cl)[C@H]1O [Compound 1] | 2 |  |  | 
10 | 25 µg/mL |  |  |  | 25 µg/mL | C[C@H](O)C(=O)N[C@H]1C(=O)N[C@@H](CC(N)=O)C(=O)N[C@H]2C(=O)N[C@H]3C(=O)N[C@H](C(=O)N[C@@H](C(=O)O)c4cc(O)cc(O)c4-c4cc3ccc4O)[C@H](O)c3ccc(c(Cl)c3)Oc3cc2cc(c3O[C@@H]2O[C@H](CO)[C@@H](O)[C@H](O)[C@H]2O[C@@H]2C[C@@](C)(NCc3ccc(-c4ccc(Cl)cc4)cc3)[C@@H](O)[C@@H](C)O2)Oc2ccc(cc2Cl)[C@H]1O [Compound 21] |  | 2 | 2 | 2
11 | 25 µg/mL | 0.78 µg/mL |  |  | 25 µg/mL | CC1OC(OC2C(Oc3c4cc5cc3Oc3ccc(cc3Cl)C(O)C3NC(=O)C(NC(=O)C5NC(=O)C(CC(N)=O)NC(=O)C(NC(=O)C(N)CCCCNC=O)C(O)c5ccc(c(Cl)c5)O4)c4ccc(O)c(c4)-c4c(O)cc(O)cc4C(C(=O)O)NC3=O)OC(CO)C(O)C2O)CC(C)(NCc2ccc(-c3ccc(Cl)cc3)cc2)C1O (centres unmarked) [Compound 79] | 2 | 2 |  | 
12 | 25 µg/mL | 0.78 µg/mL |  | 0.78 µg/mL | 25 µg/mL | CC1OC(OC2C(Oc3c4cc5cc3Oc3ccc(cc3Cl)C(O)C3NC(=O)C(NC(=O)C5NC(=O)C(CC(N)=O)NC(=O)C(NC(=O)C(N)CC[S+](C)[O-])C(O)c5ccc(c(Cl)c5)O4)c4ccc(O)c(c4)-c4c(O)cc(O)cc4C(C(=O)O)NC3=O)OC(CO)C(O)C2O)CC(C)(NCc2ccc(-c3ccc(Cl)cc3)cc2)C1O (centres unmarked) [Compound 81] | 2 |  | 2 | 
13 |  | 0.78 µg/mL |  | 0.78 µg/mL | 25 µg/mL | CC1OC(OC2C(Oc3c4cc5cc3Oc3ccc(cc3Cl)C(O)C3NC(=O)C(NC(=O)C5NC(=O)C(CC(N)=O)NC(=O)C(NC(=O)C(N)CO)C(O)c5ccc(c(Cl)c5)O4)c4ccc(O)c(c4)-c4c(O)cc(O)cc4C(C(=O)O)NC3=O)OC(CO)C(O)C2O)CC(C)(NCc2ccc(-c3ccc(Cl)cc3)cc2)C1O (centres unmarked) [Compound 88] | 2 | 2 | 2 | 2
14 | 25 µg/mL |  |  |  | 25 µg/mL | CC1OC(OC2C(Oc3c4cc5cc3Oc3ccc(cc3Cl)C(O)C3NC(=O)C(NC(=O)C5NC(=O)C(CC(N)=O)NC(=O)C(NC(=O)C(N)CSC(C)(C)C)C(O)c5ccc(c(Cl)c5)O4)c4ccc(O)c(c4)-c4c(O)cc(O)cc4C(C(=O)O)NC3=O)OC(CO)C(O)C2O)CC(C)(NCc2ccc(-c3ccc(Cl)cc3)cc2)C1O (centres unmarked) [Compound 333] |  |  |  | 
15 |  | 0.78 µg/mL | 0.78 µg/mL | 0.78 µg/mL | 25 µg/mL | CCCC(N)C(=O)NC1C(=O)NC(CC(N)=O)C(=O)NC2C(=O)NC3C(=O)NC(C(=O)NC(C(=O)O)c4cc(O)cc(O)c4-c4cc3ccc4O)C(O)c3ccc(c(Cl)c3)Oc3cc2cc(c3OC2OC(CO)C(O)C(O)C2OC2CC(C)(NCc3ccc(-c4ccc(Cl)cc4)cc3)C(O)C(C)O2)Oc2ccc(cc2Cl)C1O (centres unmarked) [Compound 341] |  |  |  | 
16 | 25 µg/mL | 0.25 µg/mL | 0.39 µg/mL | 0.39 µg/mL | 25 µg/mL | COCC(N)C(=O)NC1C(=O)NC(CC(N)=O)C(=O)NC2C(=O)NC3C(=O)NC(C(=O)NC(C(=O)O)c4cc(O)cc(O)c4-c4cc3ccc4O)C(O)c3ccc(c(Cl)c3)Oc3cc2cc(c3OC2OC(CO)C(O)C(O)C2OC2CC(C)(NCc3ccc(-c4ccc(Cl)cc4)cc3)C(O)C(C)O2)Oc2ccc(cc2Cl)C1O (centres unmarked) [Compound 525] |  |  |  | 
17 |  | 0.39 µg/mL | 0.78 µg/mL |  | 25 µg/mL | CC1OC(OC2C(Oc3c4cc5cc3Oc3ccc(cc3Cl)C(O)C3NC(=O)C(NC(=O)C5NC(=O)C(CC(N)=O)NC(=O)C(NC(=O)C(N)Cc5c[nH]cn5)C(O)c5ccc(c(Cl)c5)O4)c4ccc(O)c(c4)-c4c(O)cc(O)cc4C(C(=O)O)NC3=O)OC(CO)C(O)C2O)CC(C)(NCc2ccc(-c3ccc(Cl)cc3)cc2)C1O (centres unmarked) [Compound 554] |  |  |  | 

Reference: patent publication US6518243B1, “Desleucyl glycopeptide antibiotics and methods of making same” (Trustees of Princeton University, priority 1999, dated 2003)
